Data set [1] can be described thus: water solubility of the active ingredient. The data set is classed as physicochemical. The method, then:
Brivaracetam is a very water soluble active ingredient (ca. 700 mg/ml), and it is not obvious to slow down the release of the drug.

A short description of the next data set: BCS classification. The data set is classed as physicochemical. The method, then:
Considering Brivaracetam is classified as BCS I, the resulting in vitro dissolution (USP <711> apparatus no 2) in a buffered aqueous media has to show a drug release of no more than 40% after 1 hour of dissolution, of 35%-80% after 4 hours of dissolution and of no less than 80% after 16 hours of dissolution. Preferably, a profile of no more than 35% after 1 hour of dissolution, of 40%-75% after 4 hours of dissolution and of no less than 80% after 16 hours of dissolution. More preferably a profile of no more than 30% after 1 hour of dissolution, of 45%-70% after 4 hours of dissolution and of no less than 80% after 16 hours of dissolution.

In brackets after ≈: the same amount, converted by molar mass.

Consider `CCC[C@@H]1CC(=O)N([C@@H](CC)C(N)=O)C1` [Brivaracetam, (2S)-2-[(4R)-2-oxo-4-propyl-pyrrolidin-1-yl]butanamide], for which the solubility (commonly the dissolved amount per volume that the medium holds) in data set [1] was ~700 mg/mL (≈ 3300 mM). The BCS class result in “BCS classification” is listed as “BCS I”.

The record behind these values is patent US8435564B2, “Pharmaceutical compositions comprising brivaracetam” (UCB Pharma, S.A., priority 2008, dated 2013).
